From publication PMC5909442 (Nucleic Acids Research, 2018) come the findings set out here.

For data set [1], the system named is HpoR (HpoRMS) (Mycobacterium smegmatis mc2 155). Kind of data set: SPR.
The target in data set [2] is Mtb HpoR (Rv0767c); HpoRMtb (Mycobacterium tuberculosis, UniProt P9WMD7).
The target of data set [3] is T1, HpoR (Ms5860) (Mycolicibacterium smegmatis, UniProt A0R4J9).
T1 sequence (A0R4J9 1-199): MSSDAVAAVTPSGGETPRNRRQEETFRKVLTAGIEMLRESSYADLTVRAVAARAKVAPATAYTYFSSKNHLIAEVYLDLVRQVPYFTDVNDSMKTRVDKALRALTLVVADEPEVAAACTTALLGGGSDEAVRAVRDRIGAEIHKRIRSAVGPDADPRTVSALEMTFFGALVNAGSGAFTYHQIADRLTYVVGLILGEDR
As to the kind of experiment: isothermal titration calorimetry. It is filed as binding.

Sequence of Mtb HpoR (Rv0767c); HpoRMtb (P9WMD7 whole entry): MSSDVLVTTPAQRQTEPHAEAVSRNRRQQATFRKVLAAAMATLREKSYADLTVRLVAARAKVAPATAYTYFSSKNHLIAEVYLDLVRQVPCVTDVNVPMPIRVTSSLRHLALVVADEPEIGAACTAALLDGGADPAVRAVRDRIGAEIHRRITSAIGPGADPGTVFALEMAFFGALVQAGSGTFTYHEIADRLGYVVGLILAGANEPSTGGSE

Ms5860p, biotin-labeled gave a binding signal in data set [1] of 150 RU. Take `Nc1nc2c(ncn2[C@@H]2O[C@@H]3COP(=O)(O)O[C@H]4[C@@H](O)[C@H](n5cnc6c(=O)[nH]c(N)nc65)O[C@@H]4COP(=O)(O)O[C@H]3[C@H]2O)c(=O)[nH]1` [c-di-GMP]: the “UV cross-linking with radiolabelled ligand, SDS-PAGE autoradiography” value in data set [2] is “Mtb HpoR (Rv0767c) showed a good binding ability for c-di-GMP”. In data set [3], the Kd was found to be 1.78 ± 0.23 µM.

For orientation: Kd means the constant that tells how readily two partners part at equilibrium. A lower Kd goes with tighter binding.
